Source: patent publication US11466028B2, “Fused 1,4-oxazepines as BET protein degraders” (THE REGENTS OF THE UNIVERSITY OF MICHIGAN, priority 2016, dated 2022)
Read-outs that look alike come from different tables or passages of the source. Values belong to the compound of their own block, whether it stands above or below them.

Legend:
MDA-MB-231 [1] = experiment: CellTiter-Glo cell growth inhibition, MDA-MB-231; type: cell-based; conditions: Homo sapiens, MDA-MB-231, 96 h, 4 days, Table 4
In short: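 Cells seeded at 2,000 cells/well with serially diluted compound and incubated 4 days at 37 °C, 5% CO2. Viability read by CellTiter-Glo luminescence after 10-20 min at room temperature; IC50 calculated from the dose-response.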

MOLM-13 = experiment: CellTiter-Glo cell growth inhibition, MOLM-13; type: cell-based; conditions: Homo sapiens
In short: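 Leukemia cells seeded at 2,000 cells/well with serially diluted compounds, 4 days at 37 °C, 5% CO2. Viability by CellTiter-Glo luminescence after 10-20 min at RT. IC50 calculated from the curves.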

RS4;11 = experiment: CellTiter-Glo cell growth inhibition, RS4;11; type: cell-based; conditions: Homo sapiens
Protocol: (§1) Cell growth inhibitory activity of representative Compounds of the Disclosure was determined using the CellTiter-Glo® Luminescent Cell Viability Assay. Cells were seeded in 384-well white opaque cell culture plates at a density of 2,000 cells/well with serially diluted compounds and incubated at 37° C. in an atmosphere of 95% air and 5% CO2 for 4 days. Cell viability was determined using the CellTiter-Glo® Luminescent Cell Viability Assay Kit (Promega, Madison, Wis.) according to the manufacture's instruction. Briefly, a volume of CellTiter-Glo® Reagent equal to the volume of cell culture medium was added to each well, and then the plates were incubated at room temperature for 10-20 minutes. The luminescent signal was measured using a Tecan Infinite M1000 multimode microplate reader (Tecan, Morrisville, N.C.). The half maximal inhibitory concentration (IC50) was calculated using the GraphPad Prism 5 software (GraphPad Software, La Jolla, Calif.).
(§2) Cpd. Nos. 18 and 19 were tested in various leukemia cell lines using the CellTiter-Glo® Luminescent Cell Viability Assay as described in Example 35.

RS4;11 xenograph tumors = experiment: RS4;11 xenograft model; type: in vivo, SCID mice; conditions: for tumor regression in RS4;11 xenograph tumors: SCID mice
Protocol: Cpd. Nos. 7 and 11 were dissolved in 10% PCP [10% PEG400 (Sigma), 3% Cremophor (Sigma), and 87% PBS (Gibco)]. The pH of the drug solutions were checked before use and adjusted with 0.5N NaOH to be between pH 6.5 and 8.0 for IV (intravenous) administration.
RS4;11 cells were maintained at 37° C., 95% air, 5% carbon dioxide in Improved MEM (Richter's Mod.) supplemented with 10% Fetal Bovine Serum, 100 units/ml of penicillin and 100 units/ml of streptomycin (GIBCO™, Invitrogen Corp.) and passaged twice weekly.
Tumor cells for xenografts were harvested with Trypsin (0.05%)-EDTA (0.53 mM) (GIBCO™, Invitrogen Corp.), growth medium added and cells placed on ice. Cells were washed once with 1×PBS (GIBCO™, Invitrogen Corp.) and re-suspended in PBS. After washing in PBS, cells were re-suspended in an ice cold mixture of 1:1 PBS and Matrigel (BD Biosciences, Invitrogen Corp.) for a final Matrigel protein concentration of 5 mg/ml. Cells at 5×10^6 cells in 0.1 ml were injected subcutaneously (s.c.) into the flank region of each mouse using a 25 gauge needle. All tumors were inoculated into SCID mice (strain:236) C.B-17 SCID, Charles River.
The size of tumors growing in the mice was measured in two dimensions using calipers. Tumor volume (mm^3)═(A×B^2)/2 where A and B are the tumor length and width (in mm), respectively. During treatment, tumor volume and body weight were measured three times a week. After the treatment was stopped, tumor volume and body weight was measured at least once a week.
Tumors were not allowed to exceed 10% of the animals total body weight. If an animal had two or more tumors the total weight of all tumors were not allowed to exceed 10% of the animal's total body weight. At the end of the experimental period or when tumor size approached 10% of the total body weight, the animal was euthanized.
Before treatment began, tumors were allowed to grow to 100-200 mm^3 in volume, at which point the blood vessel supplies to the tumor should have been well established. Mice with tumors within acceptable size range were randomized into treatment groups of seven mice. Cpd. Nos. 7 and 11 were given i.v. at 10 mg/kg at days 1,3, and 5 per week for two weeks. The Control group received vehicle alone. Cpd. Nos. 16, 18, 22 and 48 were given i.v. at 5 mg/kg at days 1, 3, and 5 per week for two weeks. The Control group received vehicle alone.
(§3) Representative Compounds of the Disclosure were tested in the RS4;11 and other xenograph models using similar techniques. […] No. 22 in the MDA-MB-231 TNBC model.

WHIM24 breast cancer PDX = WHIM24 breast cancer PDX model; type: in vivo; conditions: FIG. 10
Protocol: as §3

MV4;11 xenograph = MV4;11 xenograph model; type: in vivo
Protocol: as §3

MDA-MB-468 TNBC = MDA-MB-468 TNBC model; type: in vivo; conditions: FIG. 11
Protocol: as §3

MDA-MB-231 TNBC = MDA-MB-231 TNBC model; type: in vivo; conditions: FIG. 12
Protocol: as §3

MV4; 11 = experiment: CellTiter-Glo cell viability, MV4;11 leukemia cell line; type: cell-based; conditions: Homo sapiens, Table 5
Protocol: as §1, §2

MOLM16 = experiment: CellTiter-Glo cell viability, MOLM16 leukemia cell line; type: cell-based; conditions: Table 5
Protocol: as §1, §2

HL60 = experiment: CellTiter-Glo cell viability, HL60 leukemia cell line; type: cell-based; conditions: Homo sapiens, HL-60, Table 5
Protocol: as §1, §2

AML5 = experiment: CellTiter-Glo cell viability, AML5 leukemia cell line; type: cell-based; conditions: Table 5
Protocol: as §1, §2

MonoMac6 = experiment: CellTiter-Glo cell viability, MonoMac6 leukemia cell line; type: cell-based; conditions: Homo sapiens, MONO-MAC-6, Table 5
Protocol: as §1, §2

AML3 = experiment: CellTiter-Glo cell viability, AML3 leukemia cell line; type: cell-based; conditions: Table 5
Protocol: as §1, §2

KG1 = experiment: CellTiter-Glo cell viability, KG1 leukemia cell line; type: cell-based; conditions: Homo sapiens, KG-1, Table 5
Protocol: as §1, §2

BRD2 [2] = target: T1, BRD2 (Homo sapiens, UniProt P25440); experiment: Western blot, degradation of BRD2 in RS4;11 cells; type: cell-based; conditions: 2.5 h, as compared to Compound A, FIG. 1
T1 construct: endogenous in cells; host or cells: RS4;11 and MOLM-13 leukemia cells
Protocol: (§4) Cells were treated with compounds at the indicated concentrations for 2.5 h and 3 h, respectively, for RS4;11 (see FIG. 1) and MOLM-13 (see FIG. 2) cells. Compound A is ((S)-3-benzyl-6,9-dimethyl-2-((1-methyl-1H-pyrazol-4-yl)ethynyl)-4H,6H-thieno[2,3-e][1,2,4]triazolo[3,4-c][1,4]oxazepine). See Cpd. No. 85 of U.S. Appl. No. 62/295,271.
(§5) Collected cells were lysed in lysis buffer [1% CHAPS, 150 mM NaCl, 20 mM Tris-HCl, 1 mM. EDTA, 1 mM EGTA, and COMPLETE proteinase inhibitor (Roche)] for 30 minutes on ice. Protein concentrations were determined using the Bio-Rad Protein Assay Dye reagent. Whole tumor lysates (20 μg) were separated on a 4-20% Novex gels (Invitrogen). The separated proteins were transferred to a PVDF membrane (BIO-RAD) and the PVDF membrane was then blotted with 5% Blotting-Grade Blocker (BIO-RAD) for 1 hour at room temperature. The primary antibodies used were BRD4 rabbit polyclonal antibody [Bethyl Laboratories, Inc, cat #A301] and BRD2 antibody.
(§6) The BIO-RAD Clarity Western ECL Substrates (BIO-RAD) and HyBlot CL film (Denville) were used for signal development and detection using a SRX-101A tabletop processor (Konica Minolta).

BRD4 [3] = target: T2, BRD4 (Homo sapiens, UniProt O60885); experiment: Western blot, degradation of BRD4 in RS4;11 cells; type: cell-based; conditions: 2.5 h, as compared to Compound A, FIG. 1
T2 construct: Collected cells were lysed in lysis buffer; endogenous in cells; host or cells: RS4;11 and MOLM-13 leukemia cells
Protocol: as §4, §5, §6

BRD2 [4] = target: T1, BRD2; experiment: Western blot, degradation of BRD2 in MOLM-13 cells; type: cell-based; conditions: 3 h, as compared to Compound A, FIG. 2
Protocol: as §4, §5, §6

BRD4 [5] = target: T2, BRD4; experiment: Western blot, degradation of BRD4 in MOLM-13 cells; type: cell-based; conditions: 3 h, as compared to Compound A, FIG. 2
Protocol: as §4, §5, §6

MDA-MB-231 [6] = experiment: WST-8 cell growth inhibition assay, MDA-MB-231; type: cell-based; conditions: Homo sapiens, WST-8, Table 6
Protocol: (§7) Cpd. Nos. 7 and 18 were tested in various triple-negative breast cancer cell lines using the WST-8 cell growth assay.

MDA-MB-468 = experiment: WST-8 cell growth inhibition assay, MDA-MB-468; type: cell-based; conditions: Homo sapiens, WST-8, Table 6
Protocol: as §7

MDA-MB-157 = experiment: WST-8 cell growth inhibition assay, MDA-MB-157; type: cell-based; conditions: Homo sapiens, WST-8, Table 6
Protocol: as §7

MDA-MB-474 = experiment: WST-8 cell growth inhibition assay, MDA-MB-474; type: cell-based; conditions: WST-8, Table 6
Protocol: as §7

HBL100 = experiment: WST-8 cell growth inhibition assay, HBL100; type: cell-based; conditions: Homo sapiens, HBL-100; WST-8, Table 6
Protocol: as §7

MDA-MB-453 = experiment: WST-8 cell growth inhibition assay, MDA-MB-453; type: cell-based; conditions: Homo sapiens, WST-8, Table 6
Protocol: as §7

MDA-MB-436 = experiment: WST-8 cell growth inhibition assay, MDA-MB-436; type: cell-based; conditions: Homo sapiens, WST-8, Table 6
Protocol: as §7

[7] = MOLM-13, 96 h, 4 days, Table 4, read-out: MOLM-13 IC50
[8] = RS4-11, 96 h, 4 days, Table 4, read-out: RS-4, 11 IC50

T1 sequence (P25440 whole entry): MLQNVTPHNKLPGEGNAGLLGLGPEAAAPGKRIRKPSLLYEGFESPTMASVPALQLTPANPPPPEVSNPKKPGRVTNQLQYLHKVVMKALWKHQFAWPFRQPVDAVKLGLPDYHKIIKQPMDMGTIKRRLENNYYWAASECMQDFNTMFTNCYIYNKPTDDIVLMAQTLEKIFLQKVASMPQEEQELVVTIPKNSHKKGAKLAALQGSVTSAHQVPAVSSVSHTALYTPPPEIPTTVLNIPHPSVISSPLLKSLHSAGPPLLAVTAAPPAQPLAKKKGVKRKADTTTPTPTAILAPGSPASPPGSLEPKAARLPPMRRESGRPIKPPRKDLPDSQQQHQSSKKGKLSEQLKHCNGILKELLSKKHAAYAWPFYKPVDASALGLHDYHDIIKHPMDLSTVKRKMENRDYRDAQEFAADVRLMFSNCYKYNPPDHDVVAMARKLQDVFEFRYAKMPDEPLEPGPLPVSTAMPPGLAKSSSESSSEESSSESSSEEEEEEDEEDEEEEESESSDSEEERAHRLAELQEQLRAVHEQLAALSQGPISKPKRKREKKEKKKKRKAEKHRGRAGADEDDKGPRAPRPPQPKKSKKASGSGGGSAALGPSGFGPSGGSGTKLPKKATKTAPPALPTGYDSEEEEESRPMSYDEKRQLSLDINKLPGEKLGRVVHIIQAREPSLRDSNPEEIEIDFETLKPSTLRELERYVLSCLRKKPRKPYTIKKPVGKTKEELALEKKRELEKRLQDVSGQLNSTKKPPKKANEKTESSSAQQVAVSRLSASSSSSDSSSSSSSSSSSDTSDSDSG

IC50 (MDA-MB-231 [1]): < 0.015 nM
IC50 (MOLM-13; [7]): 0.85 nM
IC50 (RS4;11; [8]): 0.11 nM
SMILES: Cc1nnc2n1-c1sc(C#Cc3cnn(CCCC#Cc4cccc5c4CN(C4CCC(=O)NC4=O)C5=O)c3)c(Cc3ccccc3)c1COC2 (centres unmarked) [Cpd. No. 22, 3-(4-(5-(4-((3-benzyl-9-methyl-4H,6H-thieno[2,3-e][1,2,4]triazolo[3,4-c][1,4]oxazepin-2-yl)ethynyl)-1H-pyrazol-1-yl)pent-1-yn-1-yl)-1-oxoisoindolin-2-yl)piperidine-2,6-dione]
tumor regression in RS4;11 xenograph tumors (RS4;11 xenograph tumors; i.v. 5 mg/kg at days 1, 3, 5 per week for two weeks, FIG. 4): induce tumor regression
tumor regression in the RS4;11 xenograph model (RS4;11 xenograph tumors; every other day dosing schedule, FIG. 6): induces tumor regression
tumor regression in the RS4;11 xenograph model (RS4;11 xenograph tumors; single dose or weekly dosing schedule, FIG. 7): induces tumor regression
tumor regression in the WHIM24 breast cancer PDX model (WHIM24 breast cancer PDX): induces tumor regression
tumor regression in the MV4;11 xenograph model (MV4;11 xenograph; FIG. 8): induces tumor regression
tumor regression in the MV4;11 xenograph model (MV4;11 xenograph; FIG. 9): induce tumor regression
tumor regression in the MDA-MB-468 TNBC model (MDA-MB-468 TNBC): induces tumor regression
tumor regression in the MDA-MB-231 TNBC model (MDA-MB-231 TNBC): induces tumor regression

IC50 (MDA-MB-231 [1]): 12 nM
IC50 (MOLM-13; [7]): 2.7 nM
IC50 (MOLM-13; MOLM-13, Table 5, read-out: IC50 (nM) MOLM13): 7.6 nM
IC50 (RS4;11; [8]): 0.06 nM
IC50 (RS4;11; RS4-11, Table 5, read-out: IC50 (nM) RS4, 11): 0.8 ± 0.1 nM
IC50 (MV4; 11): 0.46 ± 0.1 nM
IC50 (MOLM16): 0.15 ± 0.06 nM
IC50 (HL60): 0.97 ± 0.08 nM
IC50 (AML5): 0.84 ± 0.14 nM
IC50 (MonoMac6): 1.8 ± 0.3 nM
IC50 (AML3): 2.44 ± 0.22 nM
IC50 (KG1): 3.99 ± 0.18 nM
degradation of BRD2 protein (Western blot) (BRD2 [2]): induce degradation
degradation of BRD4 protein (Western blot) (BRD4 [3]): induce degradation
degradation of BRD2 protein (Western blot) (BRD2 [4]): induce degradation
degradation of BRD4 protein (Western blot) (BRD4 [5]): induce degradation
SMILES: Cc1nnc2n1-c1sc(C#Cc3cnn(CCCCCc4cccc5c4CN(C4CCC(=O)NC4=O)C5=O)c3)c(Cc3ccccc3)c1CO[C@H]2C (stereo partly drawn) [Cpd. No. 19, 3-(4-(5-(4-(((S)-3-benzyl-6,9-dimethyl-4H,6H-thieno[2,3-e][1,2,4]triazolo[3,4-c][1,4]oxazepin-2-yl)ethynyl)-1H-pyrazol-1-yl)pentyl)-1-oxoisoindolin-2-yl) piperidine-2,6-dione]

IC50 (MDA-MB-231 [1]): 0.8 nM
IC50 (MOLM-13; [7]): 0.7 nM
IC50 (RS4;11; [8]): 0.03 nM
IC50 (MDA-MB-231 [6]): 1.2 ± 0.13 nM
IC50 (MDA-MB-468): 2.46 ± 0.07 nM
IC50 (MDA-MB-157): 0.29 ± 0.02 nM
IC50 (MDA-MB-474): 1.09 ± 0.06 nM
IC50 (MDA-MB-453): 1.02 ± 0.03 nM
IC50 (MDA-MB-436): 2.24 ± 0.3 nM
SMILES: Cc1nnc2n1-c1sc(C#Cc3cnn(CCCCNc4cccc5c4C(=O)N(C4CCC(=O)NC4=O)C5=O)c3)c(Cc3ccccc3)c1CO[C@H]2C (stereo partly drawn) [Cpd. No. 7, 4-((4-(4-(((S)-3-benzyl-6,9-dimethyl-4H,6H-thieno[2,3-e][1,2,4]triazolo[3,4-c][1,4]oxazepin-2-yl)ethynyl)-1H-pyrazol-1-yl)butyl)amino)-2-(2,6-dioxopiperidin-3-yl)isoindoline-1,3-dione]
IC50 (HBL100): 1.7 ± 0.15 nM
tumor regression in RS4;11 xenograph tumors (RS4;11 xenograph tumors; i.v. 10 mg/kg at days 1, 3, 5 per week for two weeks, FIG. 3): induce tumor regression
